Laboratory results published in patent publication US8071287B2, “Pharmaceutical and therapeutic applications relating to a type 9 adenylyl cyclase Polymorphism in asthma and reversible bronchial obstruction” (priority 2005, dated 2011).
Numbering of substitutions follows the chain as printed. One block for each compound: values may come before it.

Tests used:
Met772 AC9 = target: T1, Met772 AC9 (Homo sapiens, UniProt O60503, I772M); assay: Adenylyl cyclase activities in membranes of A431 cells transfected with Met772 AC9; assay type: biochemical; details: 10 μM albuterol; for albuterol stimulated adenylyl cyclase activities: Met772 cells, N=5; for stimulated adenylyl cyclase activities of Met772 compared to WT: no corticosteroid, 1.8 mM MnCl2 or 10 mM NaF
T1 construct: expressed in transfected cells
T1 sequence (O60503 1-1353 I772M): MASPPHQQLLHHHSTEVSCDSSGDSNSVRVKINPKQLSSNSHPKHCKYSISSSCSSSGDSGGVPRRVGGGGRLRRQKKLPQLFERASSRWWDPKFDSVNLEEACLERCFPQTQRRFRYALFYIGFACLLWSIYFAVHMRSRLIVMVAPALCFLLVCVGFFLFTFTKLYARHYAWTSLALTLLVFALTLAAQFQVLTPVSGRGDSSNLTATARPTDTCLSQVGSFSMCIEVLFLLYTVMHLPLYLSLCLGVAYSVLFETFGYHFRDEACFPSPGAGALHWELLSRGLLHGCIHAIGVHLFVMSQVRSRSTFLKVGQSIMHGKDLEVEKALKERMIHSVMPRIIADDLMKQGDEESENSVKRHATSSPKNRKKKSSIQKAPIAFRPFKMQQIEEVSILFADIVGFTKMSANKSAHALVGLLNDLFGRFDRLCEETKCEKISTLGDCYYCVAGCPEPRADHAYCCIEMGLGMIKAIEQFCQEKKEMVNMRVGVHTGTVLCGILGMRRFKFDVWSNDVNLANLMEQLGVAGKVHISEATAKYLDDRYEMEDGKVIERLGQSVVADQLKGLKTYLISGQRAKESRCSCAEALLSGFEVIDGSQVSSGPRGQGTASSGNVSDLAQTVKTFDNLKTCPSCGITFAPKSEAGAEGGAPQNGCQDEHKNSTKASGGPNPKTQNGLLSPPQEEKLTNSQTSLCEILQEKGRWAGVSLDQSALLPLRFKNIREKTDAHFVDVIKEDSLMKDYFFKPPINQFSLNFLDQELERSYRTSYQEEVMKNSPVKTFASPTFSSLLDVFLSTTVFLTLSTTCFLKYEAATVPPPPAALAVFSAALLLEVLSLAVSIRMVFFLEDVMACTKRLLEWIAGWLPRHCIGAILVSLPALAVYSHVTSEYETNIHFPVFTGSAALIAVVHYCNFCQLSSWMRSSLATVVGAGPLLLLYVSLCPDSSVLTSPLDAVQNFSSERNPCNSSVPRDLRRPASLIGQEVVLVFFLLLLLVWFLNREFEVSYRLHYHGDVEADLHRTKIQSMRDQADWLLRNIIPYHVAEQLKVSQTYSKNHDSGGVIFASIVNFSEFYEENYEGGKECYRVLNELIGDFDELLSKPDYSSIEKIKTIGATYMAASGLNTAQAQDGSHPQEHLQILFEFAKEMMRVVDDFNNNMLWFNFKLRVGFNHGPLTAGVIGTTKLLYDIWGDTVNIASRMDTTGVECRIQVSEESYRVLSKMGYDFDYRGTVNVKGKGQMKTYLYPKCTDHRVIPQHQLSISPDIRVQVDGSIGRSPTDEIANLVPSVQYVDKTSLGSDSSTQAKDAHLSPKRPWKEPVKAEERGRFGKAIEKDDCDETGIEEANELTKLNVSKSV
Excerpt: (§1) The WT coding sequence for the human AC9 gene is considered that of GenBank accession number DQ005545. With the adenine of the initiator codon being considered nucleotide 1, a polymorphism consisting of an […] which results in […] (accession number DQ008441) was previously described in Small et al, Pharmacogenetics, 13, 535-541, supra. The cDNAs for […] (also referred to as WT) and […] coding regions were generated from human lymphocyte RNA, subcloned into pCNDA3, and transfections of A431 cells carried out as described. Selection of positive clones was carried out in media containing 400 μg/ml G418. Expression of AC9 was determined in individual clonal lines by Western blots (see below). A431 cells were grown in monolayers in Dulbecco's modified Eagle's medium with 4 mM […] 10% fetal bovine serum, 100 U/ml penicillin and 100 μg/ml streptomycin, at 37° in a 5% CO2 atmosphere. In some studies, cells at 90% confluency in the absence of serum were treated with 500 nM dexamethasone for 12 hours and then utilized as described below. […] M et al., “Beta1-adrenergic receptor polymorphisms confer differential function and predisposition to heart failure” Nat. Med., 9, 1300-1305 (2003). […] [^32P] cAMP was separated from […] by chromatography over alumina columns. The [^3H] cAMP standard included in the stop buffer accounted for individual column recovery.

asthmatic children = assay: CAMP clinical cohort: bronchodilator response (FEV1) stratified by AC9 genotype; assay type: in vivo, human; details: for Bronchodilator response at baseline: at randomization
Excerpt: The study cohort consisted of pediatric patients who participated in the Childhood Asthma Management Program (CAMP). The study was a multicenter, randomized, trial comparing regularly scheduled inhalation treatment with the corticosteroid budesonide, the putative mast-cell “stabilizer” nedocromil, and placebo. The study design has been previously published in “Long-term effects of budesonide or nedocromil in children with asthma” N. Engl. J. Med., 343, 1054-1063 (2000). […] Once per year a methacholine challenge was performed to ascertain bronchial hyperresponsiveness. The current study utilized archived DNA from patients who participated in the CAMP DNA Ancillary Study. Because of potential population stratification issues (the allele frequency of Met772 is ˜0.30 in Caucasians and ˜0.15 in African Americans) and the small number of African American children enrolled in CAMP (14%), the current study was confined to Caucasian children. […] The analysis was focused then, on 436 children, with follow-up through 48 months, the last time point in which nearly complete measures were obtained for the cohort. The subjects' parents provided informed consent, and the study was approved by the Institutional Review Boards of each participating center.
The AC9 SNP at nucleotide 2316 was genotyped via a SEQUENOM MassARRAY MALDI-TOF mass spectrometer (Sequenom, San Diego, Calif.) for analysis of unlabeled single-base extension minisequencing reactions with a semiautomated primer design program (Spectro[…], Sequenom). […] To assess for possible population stratification, a random panel of 49 SNPs across the genome (“stratification SNPs”), obtained through the SNP Consortium (TSC) database was also genotyped. SNPs were chosen that are widely distributed throughout the genome and exclude promoters, genomic UTRs, exons, and introns of known genes.
Bronchodilator response is defined as FEV1 after bronchodilator minus FEV1 before bronchodilator divided by FEV1 before bronchodilator times 100 [(Post-FEV1−Pre-FEV1)/(Pre-FEV1)×100]. Longitudinal models of bronchodilator response, using repeated measures modeling with time as a linear effect and an unstructured covariance matrix, are used. These models evaluate change in bronchodilator response beginning at the 2 month follow-up visit, allowing for evaluation of change based on treatment type. Univariate and multivariable analyses adjusting for age, sex, and bronchodilator response at baseline are performed, under the assumption of a dominant model. To test for interaction between steroid treatment and Ile772Met genotypic status, treatment specific strata was evaluated and included interaction terms in the models. A “mean bronchodilator” response is also derived by taking all of the observations over the 4 years and dividing by the number of visits. This value was used as the primary outcome in the haplotypic assessment of interactions between the β2AR locus and the AC9 polymorphism.

WT (Ile772) AC9 = target: T2, WT (Ile772) AC9 (Homo sapiens, UniProt O60503); assay: Adenylyl cyclase activities in membranes of A431 cells transfected with WT (Ile772) AC9; assay type: biochemical; details: for albuterol stimulated adenylyl cyclase activities: WT cells, 10 μM albuterol, N=5
T2 construct: expressed in transfected cells
T2 sequence (O60503 1-1353): T1 sequence (O60503 1-1353 I772M) with M772I
Excerpt: as §1

β2AR = assay: 125I-CYP radioligand binding for endogenous β2AR density in transfected A431 cells; assay type: cell-based
Procedure: The cDNAs for Ile772 (also referred to as WT) and Met772 coding regions were generated from human lymphocyte RNA, subcloned into pCNDA3, and transfections of A431 cells carried out as described. Selection of positive clones was carried out in media containing 400 μg/ml G418. Expression of AC9 was determined in individual clonal lines by Western blots (see below). A431 cells were grown in monolayers in Dulbecco's modified Eagle's medium with 4 mM L-glutamate 10% fetal bovine serum, 100 U/ml penicillin and 100 μg/ml streptomycin, at 37° in a 5% CO2 atmosphere. In some studies, cells at 90% confluency in the absence of serum were treated with 500 nM dexamethasone for 12 hours and then utilized as described below.
Transfected A431 cells were washed three times with phosphate-buffered saline (PBS), detached by scraping in 5 mM Tris, pH 7.4, 2 mM ethylenediaminetetracetic acid (EDTA) buffer, and centrifuged at 30,000 g for 10 min. […] Nonspecific binding was determined with 1 μM propranolol. […] AC9 expression in these transfected cell lines was assessed by quantitative immunoblotting so as to select lines expressing Ile772 or Met772 at the same levels for pharmacologic studies, and to ascertain if corticosteroid treatment altered expression. […] Relative levels of AC9 expression were subsequently determined using ScanAnalysis software (BioSoft, Cambridge, UK).

[1] = after dexamethasone treatment (500 nM)

SMILES: C[C@@H]1C[C@H]2[C@@H]3CCC4=CC(=O)C=C[C@]4(C)[C@@]3(F)[C@@H](O)C[C@]2(C)[C@@]1(O)C(=O)CO [dexamethasone]
β2AR expression (β2AR; Met772 AC9 line after corticosteroid (dexamethasone) exposure, untreated 66±8.9): 109 ± 9.0 fmol/mg
β2AR expression (β2AR; WT AC9 line after corticosteroid (dexamethasone) exposure, untreated 51±6.2): 103 ± 7.8 fmol/mg

SMILES: CCCC1O[C@@H]2C[C@H]3[C@@H]4CCC5=CC(=O)C=C[C@]5(C)[C@H]4[C@@H](O)C[C@]3(C)[C@]2(C(=O)CO)O1 (stereo partly drawn) [budesonide]
increase in bronchodilation response of Met772 carriers compared to wild type (asthmatic children; on inhaled budesonide, univariate): ~2 percentage point

SMILES: [F-].[Na+] [NaF]
stimulated adenylyl cyclase activities of Met772 compared to WT (Met772 AC9): decreased compared to WT

Second part, led by results:

albuterol stimulated adenylyl cyclase activities (Met772 AC9; [1]): 43 ± 3.4 pmol/min/mg
albuterol stimulated adenylyl cyclase activities (Met772 AC9; before dexamethasone treatment): 24 ± 1.3 pmol/min/mg
stimulated adenylyl cyclase activities of Met772 compared to WT (Met772 AC9): not different between the lines
albuterol stimulated adenylyl cyclase activities (WT (Ile772) AC9; [1]): 33 ± 2.5 pmol/min/mg
albuterol stimulated adenylyl cyclase activities (WT (Ile772) AC9; before dexamethasone treatment): 27 ± 2.1 pmol/min/mg
increase of albuterol-stimulated adenylyl cyclase response (WT (Ile772) AC9; cells expressing Ile772 cultured in the presence of glucocorticoid): ~20%
SMILES: CC(C)(C)NCC(O)c1ccc(O)c(CO)c1 (stereo not drawn) [albuterol]
Bronchodilator response at baseline (asthmatic children; Met772 carriers): 11.17 ± 11.24
average bronchodilator response (±SE), univariate (asthmatic children; Overall Cohort, Met772, 4 year follow-up): 9.23 ± 0.34%
average bronchodilator response (±SE), multivariate (asthmatic children; Overall Cohort, Met772, adjusted for age, gender, inhaled steroid usage, baseline response, time): 6.17 ± 0.92%
average bronchodilator response (±SE), univariate (asthmatic children; Overall Cohort, Wildtype, 4 year follow-up): 9.41 ± 0.48%
average bronchodilator response (±SE), univariate (asthmatic children; Placebo Group (no inhaled steroid), Met772): 9.94 ± 0.61%
average bronchodilator response (±SE), univariate (asthmatic children; Placebo Group (no inhaled steroid), Wildtype): 10.92 ± 0.79%
average bronchodilator response (±SE), univariate (asthmatic children; Steroid Group (inhaled budesonide), Met772): 8.72±0.54%
average bronchodilator response (±SE), multivariate (asthmatic children; Steroid Group (inhaled budesonide), Met772, adjusted): 5.78 ± 1.49%
average bronchodilator response (±SE), univariate (asthmatic children; Steroid Group (inhaled budesonide), Wildtype): 6.76±0.69%
Bronchodilator response at baseline (asthmatic children; WT patients): 10.32 ± 9.18

stimulated adenylyl cyclase activities of Met772 compared to WT (Met772 AC9): decreased compared to WT
SMILES: [Cl][Mn][Cl] [MnCl2]
